Like-named read-outs stand apart in the source and are kept apart here.
Tests used:
[1] = cited from earlier work
[2] = due to its physiological irreversibility; cited from earlier work
GlyT2 W217F mutant = biological target: T1, GlyT2 W217F mutant (Rattus norvegicus, UniProt P58295, W217F); assay: [3H]glycine transport by GlyT2 mutant in COS7 cells; assay type: cell-based
T1 construct: expressed in transfected cells; host or cells: COS7
T1 sequence (P58295 1-799 W217F): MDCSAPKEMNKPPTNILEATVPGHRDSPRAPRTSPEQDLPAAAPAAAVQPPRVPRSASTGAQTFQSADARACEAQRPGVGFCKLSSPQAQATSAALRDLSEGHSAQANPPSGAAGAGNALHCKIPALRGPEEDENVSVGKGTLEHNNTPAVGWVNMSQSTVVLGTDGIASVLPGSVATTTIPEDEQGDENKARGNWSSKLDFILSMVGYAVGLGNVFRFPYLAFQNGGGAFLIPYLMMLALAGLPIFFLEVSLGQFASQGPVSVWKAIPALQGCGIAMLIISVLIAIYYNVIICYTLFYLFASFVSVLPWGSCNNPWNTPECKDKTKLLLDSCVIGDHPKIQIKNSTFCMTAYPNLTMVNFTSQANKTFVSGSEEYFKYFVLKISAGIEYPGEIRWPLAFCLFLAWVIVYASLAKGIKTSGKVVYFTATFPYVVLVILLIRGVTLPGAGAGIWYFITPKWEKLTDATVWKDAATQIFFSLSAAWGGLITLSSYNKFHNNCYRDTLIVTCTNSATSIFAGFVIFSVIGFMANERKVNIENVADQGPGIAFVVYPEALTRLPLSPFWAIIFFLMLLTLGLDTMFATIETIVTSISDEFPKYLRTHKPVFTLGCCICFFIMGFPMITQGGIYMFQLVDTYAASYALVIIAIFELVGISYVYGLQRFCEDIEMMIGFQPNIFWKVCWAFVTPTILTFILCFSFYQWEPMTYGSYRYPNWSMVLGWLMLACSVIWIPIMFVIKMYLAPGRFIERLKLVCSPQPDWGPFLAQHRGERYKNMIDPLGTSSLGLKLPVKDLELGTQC

allodynia = conditions: nerve ligation injury, streptozotocin-induced diabetic pain, complete Freund's adjuvant-induced inflammatory pain; cited from earlier work
[3] = test system: thermal, mechanical, and chemical stimulations; conditions: rat acute pain model; cited from earlier work
GlyT1 [4] = conditions: neuronal cultures and brain preparations; cited from earlier work
GlyT1 [5] = biological target: T2, GlyT1 (Rattus norvegicus, UniProt P28572); assay: [3H]glycine transport by recombinant GlyT1 expressed in COS7 cells; assay type: cell-based; conditions: 10 μM glycine
T2 construct: expressed in transfected cells; host or cells: COS7
T2 sequence (P28572 1-638): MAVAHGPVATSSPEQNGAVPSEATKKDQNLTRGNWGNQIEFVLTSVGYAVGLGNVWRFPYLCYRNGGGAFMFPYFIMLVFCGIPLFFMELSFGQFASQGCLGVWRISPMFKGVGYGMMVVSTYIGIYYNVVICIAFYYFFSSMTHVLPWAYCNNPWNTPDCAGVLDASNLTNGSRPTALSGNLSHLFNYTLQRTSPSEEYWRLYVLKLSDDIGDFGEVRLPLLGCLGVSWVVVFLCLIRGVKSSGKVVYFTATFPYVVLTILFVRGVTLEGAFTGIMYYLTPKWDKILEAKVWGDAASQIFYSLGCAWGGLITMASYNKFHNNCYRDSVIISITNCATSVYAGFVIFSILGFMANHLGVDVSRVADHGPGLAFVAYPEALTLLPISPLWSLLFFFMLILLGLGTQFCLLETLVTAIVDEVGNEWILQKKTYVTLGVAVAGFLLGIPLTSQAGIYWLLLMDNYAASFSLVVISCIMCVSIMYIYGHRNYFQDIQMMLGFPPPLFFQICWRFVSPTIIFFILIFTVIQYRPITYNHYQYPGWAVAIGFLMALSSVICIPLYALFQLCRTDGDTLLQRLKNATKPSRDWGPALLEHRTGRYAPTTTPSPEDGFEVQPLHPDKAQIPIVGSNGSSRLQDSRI
Protocol: Substitution mutants were generated with the QuikChange II Site-Directed Mutagenesis kit (Agilent Technologies, Santa Clara, CA, USA), using rGlyT2 or rGlyT1 subcloned in pCDNA3.[47] The complete coding region of all of the constructs was sequenced to verify that only the desired mutation had been introduced. […] COS7 cells were grown and transfected using Turbofect Transfection Reagent (Thermo Fisher Scientific, Waltham, MA, USA), following the manufacturer’s protocol (2 μL reagent/μg of DNA). Cells were incubated for 48 h at 37 °C until used.
At the end of the desired time (usually 10 min), reactions were washed and terminated by aspiration. […] A nonlinear curve fitting method was used to obtain IC50 values using Graphpad Prism software, version 6.0, Graphpad, San Diego, CA, USA.

SMILES | blood–brain barrier crossing (in words) [1] | toxicity in animals [2] | IC50 (GlyT2 W217F mutant) | effect of mutation on inhibition of glycine transport (GlyT2 W217F mutant; W217F, 1 μM inhibitor, 20 μM glycine) | effect on allodynia (allodynia) | fraction of the drug that crosses the blood–brain barrier [1] | IC50 (GlyT2 W217F mutant; read-out: IC50 (Table S1)) | effect on thermal, mechanical, and chemical stimulations [3] | concentrations at which GlyT1 is inhibited (GlyT1 [4]) | IC50, inhibition of glycine transport by GlyT1 (GlyT1 [5])
COc1cc(C(=O)NCC2(N(C)C)CCCC2)cc(OC)c1OCc1ccccc1 [ORG25543, N-[[1-(dimethylamino)cyclopentyl]methyl]-3,5-dimethoxy-4-(phenylmethoxy)benzamide] | can cross the blood–brain barrier | generates toxicity in animals | 93 ± 7 nM | selectively reduced ORG25543 inhibition | reduces allodynia |  |  |  |  | 
N[C@@H](COC(c1cccc(F)c1)c1ccccc1OCc1ccccc1)C(=O)O (stereo partly shown) [ALX1393] |  |  |  |  |  | 5% | 23 ± 5 nM | antinociceptive effect | 0.5 to 1 µM | low μM range
